Measurements as given in patent publication US9700044B2, “Symmetrical marinopyrrole derivatives as potential antibiotic agents” (priority 2013, dated 2017).
≈ marks a conversion by molar mass, not a printed value. Read-outs that look alike come from different tables or passages of the source. Blank lines part the entries; values can stand above or below the compound they belong to.

Tests used:
[1] = test system: Moderately vancomycin-resistant Enterococci faecium with the VanA gene (WHO-3); assay: MIC by agar dilution, VRE (WHO-3); type: cell-based
Excerpt: (§1) A panel of multiple resistance Gram-positive and Gram-negative pathogens listed in Tables 1 and 2 was used to evaluate the antimicrobial activity of marinopyrrole derivatives (Chart 1) with vancomycin as a positive control. Except for those marked with WHO, all pathogens were isolated between 2008 and 2010 in hospitals located in Beijing; Guangzhou; Sichuan, Shandong and Jiangsu Province. Determination of the minimum inhibitory concentration (MIC) was done by the guidelines of the Clinical and Laboratory Standards Institute (Clinical and Laboratory Standards Institute, Performance standards for antimicrobial susceptibility testing, seventeenth informational supplement. 2007, 27, M100-S17). The susceptibility tests of a bacterial strain to a marinopyrrole derivative were performed by an agar dilution method. Briefly, each sterile petri dish contained a final volume of 15 mL comprising 1 mL of a marinopyrrole derivative and 14 mL of Mueller-Hinton broth. The concentrations of a marinopyrrole derivative are 128, 64, 32, 16, 8, 4, 2, 1, 0.5, 0.25, 0.125, 0.06, 0.03, 0.015 and 0.008 μg/mL. The petri dish containing the broth with different concentration of antibiotics was first inoculated with 10^5 CFU/mL (Denley A400, United Kingdom) and the culture was then incubated with shaking at 35-37° C. for 18-20 h. The potency of the compound was determined and expressed as minimum inhibitory concentration (MIC) in μg/mL. The MIC was determined as the lowest concentration of antibiotic that inhibited visible bacterial growth.

[2] = test system: Methicillin-resistant Staphylococcus aureus (MRSA); assay: MIC by agar dilution, MRSA clinical isolates; type: cell-based; settings: for MIC: MRSA
Excerpt: as §1

[3] = test system: Oxacillin-resistant Staphylococcus aureus (WHO-25); assay: MIC by agar dilution, ORSA (WHO-25); type: cell-based
Excerpt: as §1

[4] = test system: Methicillin-resistant Staphylococcus epidermidis (MRSE); assay: MIC by agar dilution, MRSE clinical isolates; type: cell-based; settings: for MIC: MRSE
Excerpt: as §1

[5] = test system: Methicillin-resistant Staphylococcus aureus with the mec A gene and PBP2a (WHO-31); assay: MIC by agar dilution, MRSA (WHO-31); type: cell-based
Excerpt: as §1

[6] = test system: Methicillin-susceptible Staphylococcus aureus (MSSA); assay: MIC by agar dilution, MSSA clinical isolates; type: cell-based; settings: MSSA
Excerpt: as §1

P. aeruginosa = assay: MIC by agar dilution, P. aeruginosa; type: cell-based
Excerpt: as §1

K. penumonia = assay: MIC by agar dilution, K. penumonia; type: cell-based, K. pneumonia
Excerpt: as §1

E. coli = assay: MIC by agar dilution, E. coli; type: cell-based
Excerpt: as §1

[7] = test system: Highly vancomycin-resistant Enterococci faecalis (VRE); assay: MIC by agar dilution, highly resistant VRE; type: cell-based
Excerpt: as §1

[8] = Staphylococcus aureus, Table 3, data from 8 isolates, read-out: MIC
[9] = Staphylococcus aureus, Table 1, 10 isolates
[10] = Staphylococcus aureus, Table 2, data from 8 isolates
[11] = Staphylococcus aureus, Table 3, data from 8 isolates
[12] = Enterococcus, Table 2, WHO-3, read-out: MIC
[13] = Staphylococcus aureus, Table 2, data from 8 isolates, read-out: MIC
[14] = Staphylococcus aureus, Table 2, WHO-25, read-out: MIC
[15] = Staphylococcus epidermidis, Table 2, data from 4 isolates, read-out: MIC
[16] = Staphylococcus aureus, Table 2, WHO-31, read-out: MIC

Structure (SMILES): O=C(c1ccccc1O)c1[nH]c(Cl)c(Cl)c1-n1c(C(=O)c2ccccc2O)cc(Cl)c1Cl (racemic) [Compound 1, marinopyrrole A, reference compound]
- higher potency than vancomycin (fold) ([1]; against moderately resistant VRE (Table 1)): 128-256 fold

Structure (SMILES): Cc1cc(O)c(C(=O)c2[nH]c(Cl)c(Cl)c2-n2c(C(=O)c3cc(Cl)c(C)cc3O)cc(Cl)c2Cl)cc1Cl [CCW14]
- MIC ([1]; Enterococcus, Table 3, WHO-3, read-out: MIC): 4 µg/mL (≈ 6.59 µM)
- MIC [2, 8]: 1 µg/mL (≈ 1.65 µM)
- MIC ([3]; Staphylococcus aureus, Table 3, WHO-25, read-out: MIC): 4 µg/mL (≈ 6.59 µM)
- MIC ([4]; Staphylococcus epidermidis, Table 3, data from 4 isolates, read-out: MIC): 1 µg/mL (≈ 1.65 µM)
- MIC ([5]; Staphylococcus aureus, Table 3, WHO-31, read-out: MIC): 1 µg/mL (≈ 1.65 µM)
- MIC [6, 8]: 1 µg/mL (≈ 1.65 µM)

Structure (SMILES): O=C(c1ccccc1O)c1[nH]c(Cl)c(Cl)c1-n1c(C(=O)c2ccccc2O)cc(Cl)c1Cl [Compound 1, marinopyrrole A, reference compound]
- MIC (P. aeruginosa; Pseudomonas aeruginosa): > 128 µg/mL
- MIC ([1]; Enterococcus): 1 µg/mL (≈ 1.96 µM)
- MIC ([1]; Enterococcus, VRE): 0.5 to 1 µg/mL (≈ 0.98 to 1.96 µM)
- MIC ([1]; Table 3, WHO-3): 1 µg/mL (≈ 1.96 µM)
- MIC (K. penumonia; Klebsiella pneumoniae): > 128 µg/mL
- MIC [2, 9]: 1 µg/mL (≈ 1.96 µM)
- MIC [2, 10]: 0.5 to 1 µg/mL (≈ 0.98 to 1.96 µM)
- MIC [2, 11]: 0.5 to 1 µg/mL (≈ 0.98 to 1.96 µM)
- MIC ([3]; Staphylococcus aureus, Table 1, ORSA (WHO-25), 1 isolate): 1 µg/mL (≈ 1.96 µM)
- MIC ([3]; Staphylococcus aureus, Table 3, WHO-25): 1 µg/mL (≈ 1.96 µM)
- MIC ([3]; Staphylococcus aureus, Table 2, WHO-25): 1 µg/mL (≈ 1.96 µM)
- MIC (E. coli; Escherichia coli): > 128 µg/mL
- MIC [7]: 16 to 128 µg/mL (≈ 31.4 to 251 µM)
- MIC ([4]; Staphylococcus epidermidis, Table 1, 3 isolates): 0.06 to 1 µg/mL (≈ 0.118 to 1.96 µM)
- MIC ([4]; Staphylococcus epidermidis, Table 2, data from 4 isolates): 0.25 µg/mL (≈ 0.49 µM)
- MIC ([4]; Staphylococcus epidermidis, Table 3, data from 4 isolates): 0.25 µg/mL (≈ 0.49 µM)
- MIC ([5]; Staphylococcus aureus): 1 µg/mL (≈ 1.96 µM)
- MIC ([5]; Staphylococcus aureus, MRSA): 1 µg/mL (≈ 1.96 µM)
- MIC ([5]; Table 3, WHO-31): 1 µg/mL (≈ 1.96 µM)
- MIC [6, 9]: 0.5 to 1 µg/mL (≈ 0.98 to 1.96 µM)
- MIC [6, 10]: 0.5 µg/mL (≈ 0.98 µM)
- MIC [6, 11]: 0.5 µg/mL (≈ 0.98 µM)

Structure (SMILES): COc1ccccc1C(=O)c1[nH]c(Cl)c(Cl)c1-n1c(C(=O)c2ccccc2OC)cc(Cl)c1Cl [Compound 1c]
- MIC (P. aeruginosa; Table 1, P. aeruginosa, 4 isolates, value over three Gram-negative pathogens): >128 µg/mL
- MIC ([1]; Table 1, VRE (WHO-3), 1 isolate): 2 µg/mL (≈ 3.72 µM)
- MIC (K. penumonia; Table 1, K. penumonia, 4 isolates, value over three Gram-negative pathogens): >128 µg/mL
- MIC ([2]; Table 1, 10 isolates): 4 to 16 µg/mL
- MIC ([3]; Table 1, ORSA (WHO-25), 1 isolate): 8 µg/mL (≈ 14.9 µM)
- MIC (E. coli; Table 1, E. coli, 4 isolates, value over three Gram-negative pathogens): >128 µg/mL
- MIC ([7]; Table 1, VRE (highly vancomycin-resistant E. faecalis), 2 isolates): >128 µg/mL
- MIC ([4]; Table 1, 3 isolates): 2 to 4 µg/mL
- MIC ([5]; Table 1, MRSA (WHO-31), 1 isolate): 4 µg/mL (≈ 7.43 µM)
- MIC ([6]; Table 1, 10 isolates): 4 to 16 µg/mL

- MIC [1, 12]: 4 µg/mL (≈ 6.55 µM)
- MIC [2, 13]: 32 µg/mL (≈ 52.4 µM)
- MIC [3, 14]: 8 µg/mL (≈ 13.1 µM)
- MIC [4, 15]: 4 to 8 µg/mL (≈ 6.55 to 13.1 µM)
- MIC [5, 16]: 8 µg/mL (≈ 13.1 µM)
- MIC [6, 13]: 32 µg/mL (≈ 52.4 µM)
Structure (SMILES): O=C(c1cc(Cl)c(O)cc1O)c1[nH]c(Cl)c(Cl)c1-n1c(C(=O)c2cc(Cl)c(O)cc2O)cc(Cl)c1Cl [Compound 19, (4,4′,5,5′-Tetrachloro-1′H-1,3′-bipyrrole-2,2′-diyl)bis((5-chloro-2,4-dihydroxyphenyl)methanone)]
- fold decreased potency compared with compound 1m ([2]; against MRSA): 4-16 fold
- fold decreased potency compared with compound 1m ([4]; against MRSE): 2-16 fold

- MIC [1, 12]: 4 µg/mL (≈ 7.38 µM)
- MIC [2, 13]: 2 µg/mL (≈ 3.69 µM)
- MIC [3, 14]: 4 µg/mL (≈ 7.38 µM)
- MIC [4, 15]: 2 to 8 µg/mL (≈ 3.69 to 14.8 µM)
- MIC [5, 16]: 2 µg/mL (≈ 3.69 µM)
- MIC [6, 13]: 2 µg/mL (≈ 3.69 µM)
Structure (SMILES): O=C(c1ccc(O)cc1O)c1[nH]c(Cl)c(Cl)c1-n1c(C(=O)c2ccc(O)cc2O)cc(Cl)c1Cl [Compound 24, (4,4′,5,5′-Tetrachloro-1′H-1,3′-bipyrrole-2,2′-diyl)bis((2,4-dihydroxyphenyl)methanone)]

- MIC ([1]; Table 2, WHO-3): 2 µg/mL (≈ 2.68 µM)
- MIC ([2]; Table 2, data from 8 isolates): 32 to 64 µg/mL
- MIC ([3]; Table 2, WHO-25): 64 µg/mL (≈ 85.7 µM)
- MIC ([4]; Table 2, data from 4 isolates): 8 µg/mL (≈ 10.7 µM)
- MIC ([5]; Table 2, WHO-31): 16 µg/mL (≈ 21.4 µM)
- MIC ([6]; Table 2, data from 8 isolates): 64 µg/mL (≈ 85.7 µM)
Structure (SMILES): CCOC(=O)CSc1ccc(C(=O)c2[nH]c(Cl)c(Cl)c2-n2c(C(=O)c3ccc(SCC(=O)OCC)cc3O)cc(Cl)c2Cl)c(O)c1 [Compound 25]
